Assays:
Format in all cases: biochemical
[1] = target: T1, rmGPb (Oryctolagus cuniculus, UniProt P00489); test: inorganic phosphate release, glycogen synthesis direction; crystal structure of the complex also solved
T1 construct: gene PYGM; native, purified from rabbit skeletal muscles (Fischer and Krebs), unphosphorylated b form
T1 sequence (P00489 2-843): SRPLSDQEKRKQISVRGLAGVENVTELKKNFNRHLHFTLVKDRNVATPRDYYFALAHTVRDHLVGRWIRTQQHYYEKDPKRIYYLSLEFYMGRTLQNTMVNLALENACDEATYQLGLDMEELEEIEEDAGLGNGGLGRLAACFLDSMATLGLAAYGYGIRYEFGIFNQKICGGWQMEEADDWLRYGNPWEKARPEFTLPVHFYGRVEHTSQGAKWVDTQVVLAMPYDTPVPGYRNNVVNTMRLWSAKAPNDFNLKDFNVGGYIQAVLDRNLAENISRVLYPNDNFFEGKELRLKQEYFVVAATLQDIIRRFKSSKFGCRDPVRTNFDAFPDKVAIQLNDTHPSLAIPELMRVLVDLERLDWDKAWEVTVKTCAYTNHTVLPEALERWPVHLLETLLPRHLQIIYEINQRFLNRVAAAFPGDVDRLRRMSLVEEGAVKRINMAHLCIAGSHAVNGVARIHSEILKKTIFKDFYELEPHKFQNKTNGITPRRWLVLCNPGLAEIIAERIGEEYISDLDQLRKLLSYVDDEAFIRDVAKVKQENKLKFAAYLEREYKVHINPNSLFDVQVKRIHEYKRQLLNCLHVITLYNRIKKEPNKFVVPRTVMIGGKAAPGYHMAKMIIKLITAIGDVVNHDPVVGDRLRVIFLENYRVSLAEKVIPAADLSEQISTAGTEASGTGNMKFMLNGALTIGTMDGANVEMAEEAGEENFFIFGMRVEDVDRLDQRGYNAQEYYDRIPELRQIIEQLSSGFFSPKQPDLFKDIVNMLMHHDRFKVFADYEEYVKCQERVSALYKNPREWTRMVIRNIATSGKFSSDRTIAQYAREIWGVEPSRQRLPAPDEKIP
Excerpt: inorganic phosphate release, glycogen synthesis direction; crystal structure of the complex also solved on rmGPb

[2] = target: T2, hlGPa (Homo sapiens, UniProt P06737); test: inorganic phosphate release, glycogen synthesis direction
T2 construct: gene PYGL; recombinant human liver GPb (produced as described previously) converted to the phosphorylated a form with truncated gamma subunit of rabbit phosphorylase kinase
T2 sequence (P06737 2-847): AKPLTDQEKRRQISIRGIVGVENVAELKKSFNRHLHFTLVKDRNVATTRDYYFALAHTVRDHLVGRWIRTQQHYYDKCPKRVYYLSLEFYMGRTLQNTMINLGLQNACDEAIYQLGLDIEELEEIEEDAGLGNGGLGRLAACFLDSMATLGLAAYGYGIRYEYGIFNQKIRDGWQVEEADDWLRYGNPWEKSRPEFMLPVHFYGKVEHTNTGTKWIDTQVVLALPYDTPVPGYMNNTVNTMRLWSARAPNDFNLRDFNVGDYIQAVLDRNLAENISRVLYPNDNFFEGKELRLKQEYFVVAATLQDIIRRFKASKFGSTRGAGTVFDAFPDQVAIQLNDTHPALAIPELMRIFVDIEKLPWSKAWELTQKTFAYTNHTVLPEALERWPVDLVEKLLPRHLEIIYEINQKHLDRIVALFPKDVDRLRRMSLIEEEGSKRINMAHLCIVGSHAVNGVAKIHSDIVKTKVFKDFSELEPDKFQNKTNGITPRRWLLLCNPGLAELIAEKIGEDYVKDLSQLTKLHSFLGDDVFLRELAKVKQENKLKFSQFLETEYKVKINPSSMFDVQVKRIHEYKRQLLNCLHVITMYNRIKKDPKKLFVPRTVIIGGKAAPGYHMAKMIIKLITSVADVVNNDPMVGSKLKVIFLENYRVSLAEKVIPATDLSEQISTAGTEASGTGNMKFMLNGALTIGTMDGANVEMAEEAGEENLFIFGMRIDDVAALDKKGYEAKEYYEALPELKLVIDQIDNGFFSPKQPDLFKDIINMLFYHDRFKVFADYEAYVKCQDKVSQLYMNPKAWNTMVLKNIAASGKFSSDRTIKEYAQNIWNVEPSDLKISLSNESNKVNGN
Excerpt: inorganic phosphate release, glycogen synthesis direction on hlGPa

[3] = target: T3, rmGPa (Oryctolagus cuniculus, UniProt P00489); test: as above
T3 construct: gene PYGM; native rabbit skeletal muscle GPb converted to the phosphorylated a form with truncated gamma subunit of rabbit phosphorylase kinase
T3 sequence (P00489 2-843): T1 sequence (P00489 2-843)
Excerpt: inorganic phosphate release, glycogen synthesis direction on rmGPa

SMILES | Ki [1] [µM] | Ki [2] [µM] | Ki [3] [µM]
O=C(N[C@@H]1O[C@H](CO)[C@@H](O)[C@H](O)[C@H]1O)c1ccc(-c2ccccc2)cc1 [compound 4, N-(3,4,5-trihydroxy-6-(hydroxymethyl)tetrahydro-2H-pyran-2-yl)biphenyl-4-carboxamide] | 9.7 ± 0.7 | 19.4 ± 0.2 | 12.8 ± 0.6
O=C(N[C@@H]1O[C@H](CO)[C@@H](O)[C@H](O)[C@H]1O)c1cccc(-c2ccc(F)cc2)c1 [compound 3, 4’-fluoro-N-(3,4,5-trihydroxy-6-(hydroxymethyl)tetrahydro-2H-pyran-2-yl)biphenyl-3-carboxamide] | 56.1 ± 4.4 | 45.6 ± 1.8 | 31.4 ± 2.2

Source: article PMC6479789, “High Consistency of Structure-Based Design and X-Ray Crystallography: Design, Synthesis, Kinetic Evaluation and Crystallographic Binding Mode Determination of Biphenyl-N-acyl-β-D-Glucopyranosylamines as Glycogen Phosphorylase Inhibitors” (Molecules, 2019)
